The values that follow come from paper PMC6096457, “Modified translationally controlled tumor protein-derived protein transduction domain enhances nasal delivery of exendin-4 as shown with insulin” (Drug Delivery, 2018).

This data set is described as follows: Visual inspection for cloudiness (turbidity) and precipitation. The data set is classed as physicochemical. Conditions: mixtures in 10 mM phosphate buffer pH 6.4. The source says: All exendin-4/PTD mixtures were clear.

Regarding “MIIFRLLAYHKK [TCTP-PTD 13M3, substitution S9Y of TCTP-PTD 13M2]”, the “cloudiness (turbidity) and precipitation” value is reported as “did not form any precipitations”.
